Experimental data as given in paper PMC2819980 (Chemistry & biology, 2010).

Legend:
Type in all cases: biochemical
FrbI [1] = target: T1, FrbI (Streptomyces rubellomurinus, UniProt Q0ZQ40); experiment: HPLC / LC-MS product analysis, coupled with FrbH, FrbF and FrbG; details: 10 mM MgCl2, HEPES pH 7.25, 30 °C; substrate formed in situ
FrbI [2] = target: T1, FrbI; experiment: in vitro hydrolysis
FrbH = FrbH (Streptomyces rubellomurinus, UniProt Q0ZQ41); experiment: HPLC / LC-MS product analysis; details: 10 mM MgCl2, HEPES pH 7.25, 30 °C
Chain of FrbH (Q0ZQ41 whole entry): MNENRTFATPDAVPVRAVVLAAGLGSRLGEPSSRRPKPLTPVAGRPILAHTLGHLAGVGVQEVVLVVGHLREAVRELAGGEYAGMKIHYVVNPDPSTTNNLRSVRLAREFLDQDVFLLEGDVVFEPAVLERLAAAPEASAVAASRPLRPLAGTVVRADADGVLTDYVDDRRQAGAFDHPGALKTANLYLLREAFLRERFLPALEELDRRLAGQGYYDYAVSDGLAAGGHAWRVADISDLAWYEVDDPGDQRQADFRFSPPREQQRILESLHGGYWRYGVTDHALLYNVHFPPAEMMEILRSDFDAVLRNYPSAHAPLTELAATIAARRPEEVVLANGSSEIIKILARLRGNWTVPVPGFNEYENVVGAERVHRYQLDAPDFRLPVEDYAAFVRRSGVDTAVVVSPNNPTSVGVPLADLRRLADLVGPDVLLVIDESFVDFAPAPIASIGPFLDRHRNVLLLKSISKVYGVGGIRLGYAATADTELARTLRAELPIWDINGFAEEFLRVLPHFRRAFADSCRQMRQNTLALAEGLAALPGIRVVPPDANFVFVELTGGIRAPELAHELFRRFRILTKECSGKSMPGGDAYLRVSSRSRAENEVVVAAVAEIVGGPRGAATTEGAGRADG

T1 sequence (Q0ZQ40 whole entry): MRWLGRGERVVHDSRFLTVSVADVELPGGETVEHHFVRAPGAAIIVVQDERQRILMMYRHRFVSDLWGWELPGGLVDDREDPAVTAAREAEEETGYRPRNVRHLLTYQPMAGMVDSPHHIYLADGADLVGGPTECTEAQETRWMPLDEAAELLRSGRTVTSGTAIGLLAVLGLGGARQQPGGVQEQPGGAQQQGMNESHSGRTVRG

SMILES: CC(=O)N(O)CCCP(=O)(O)OP(=O)(O)OC[C@H]1O[C@@H](n2ccc(N)nc2=O)[C@H](O)[C@@H]1O [IX, CMP-5'-FR-900098]
- HPLC / LC-MS product analysis, coupled with FrbH, FrbF and FrbG (FrbI [1]): FrbI catalyzes the hydrolysis of CMP-5'-FR-900098 to form FR-900098 and CMP

SMILES: Nc1ccn([C@@H]2O[C@H](COP(=O)(O)OP(=O)(O)OP(=O)(O)O)[C@@H](O)[C@H]2O)c(=O)n1 [CTP]
- in vitro hydrolysis (FrbI [2]): even showed a small amount of activity toward CTP
- HPLC / LC-MS product analysis (FrbH; 2 mM (±)-2APn): FrbH condenses 2APn and CTP to form CMP-5'-2APn

SMILES: NC(CCP(=O)(O)O)C(=O)O (racemic) [VI, 2APn]
- HPLC / LC-MS product analysis (FrbH; 1 mM CTP): FrbH condenses 2APn and CTP to form CMP-5'-2APn
